Among the data in patent EP4467141A1, “PYRAZOLO-QUINOLINES AS SELECTIVE INHIBITORS OF GENOTOXIC STRESS-INDUCED IKK/NF- KB PATHWAYS FOR CANCER THERAPY” (Max-Delbrück-Centrum für Molekulare Medizin in der …, priority 2023, dated 2024) are inhibition values, retold here.

Holding throughout (assay): Kinase panel study
Assay type in all cases: biochemical
What all share (settings): read-out: Percentage of inhibition; for inhibition at 1 µM: 1000nM; for inhibition at 10 µM: 10000nM

For one assay, the target named is T1, LCK (Homo sapiens, UniProt P06239).
T1 construct: purchased Thermo Fisher Scientific
The method in brief:
(§1)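 Inhibition was measured in an outsourced in vitro kinase panel using the ZLyte or Adapta format under the provider's standard procedures. Values are percent inhibition at 10 µM or 1 µM compound, and IC50s were also obtained.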

A further assay deals with T2, DYRK4 (Homo sapiens, UniProt Q9NR20).
T2 construct: purchased Thermo Fisher Scientific
T2 sequence (Q9NR20 1-520): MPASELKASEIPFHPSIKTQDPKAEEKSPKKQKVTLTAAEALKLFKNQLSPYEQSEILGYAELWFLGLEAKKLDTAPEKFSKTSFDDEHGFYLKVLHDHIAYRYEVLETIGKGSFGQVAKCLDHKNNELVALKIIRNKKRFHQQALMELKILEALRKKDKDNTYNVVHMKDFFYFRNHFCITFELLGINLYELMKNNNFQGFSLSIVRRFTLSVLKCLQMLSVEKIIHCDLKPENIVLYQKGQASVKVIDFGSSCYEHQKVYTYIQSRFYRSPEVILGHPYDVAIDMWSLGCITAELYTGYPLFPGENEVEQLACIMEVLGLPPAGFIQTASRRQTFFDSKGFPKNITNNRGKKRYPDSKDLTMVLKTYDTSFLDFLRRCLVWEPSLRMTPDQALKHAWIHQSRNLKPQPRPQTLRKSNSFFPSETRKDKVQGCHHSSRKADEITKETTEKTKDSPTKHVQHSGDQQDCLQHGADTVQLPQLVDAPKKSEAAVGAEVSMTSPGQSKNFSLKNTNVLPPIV
In a few lines: as §1

A further assay deals with T3, IGF1R (Homo sapiens, UniProt P08069).
T3 construct: purchased Thermo Fisher Scientific
T3 sequence (P08069 31-1367): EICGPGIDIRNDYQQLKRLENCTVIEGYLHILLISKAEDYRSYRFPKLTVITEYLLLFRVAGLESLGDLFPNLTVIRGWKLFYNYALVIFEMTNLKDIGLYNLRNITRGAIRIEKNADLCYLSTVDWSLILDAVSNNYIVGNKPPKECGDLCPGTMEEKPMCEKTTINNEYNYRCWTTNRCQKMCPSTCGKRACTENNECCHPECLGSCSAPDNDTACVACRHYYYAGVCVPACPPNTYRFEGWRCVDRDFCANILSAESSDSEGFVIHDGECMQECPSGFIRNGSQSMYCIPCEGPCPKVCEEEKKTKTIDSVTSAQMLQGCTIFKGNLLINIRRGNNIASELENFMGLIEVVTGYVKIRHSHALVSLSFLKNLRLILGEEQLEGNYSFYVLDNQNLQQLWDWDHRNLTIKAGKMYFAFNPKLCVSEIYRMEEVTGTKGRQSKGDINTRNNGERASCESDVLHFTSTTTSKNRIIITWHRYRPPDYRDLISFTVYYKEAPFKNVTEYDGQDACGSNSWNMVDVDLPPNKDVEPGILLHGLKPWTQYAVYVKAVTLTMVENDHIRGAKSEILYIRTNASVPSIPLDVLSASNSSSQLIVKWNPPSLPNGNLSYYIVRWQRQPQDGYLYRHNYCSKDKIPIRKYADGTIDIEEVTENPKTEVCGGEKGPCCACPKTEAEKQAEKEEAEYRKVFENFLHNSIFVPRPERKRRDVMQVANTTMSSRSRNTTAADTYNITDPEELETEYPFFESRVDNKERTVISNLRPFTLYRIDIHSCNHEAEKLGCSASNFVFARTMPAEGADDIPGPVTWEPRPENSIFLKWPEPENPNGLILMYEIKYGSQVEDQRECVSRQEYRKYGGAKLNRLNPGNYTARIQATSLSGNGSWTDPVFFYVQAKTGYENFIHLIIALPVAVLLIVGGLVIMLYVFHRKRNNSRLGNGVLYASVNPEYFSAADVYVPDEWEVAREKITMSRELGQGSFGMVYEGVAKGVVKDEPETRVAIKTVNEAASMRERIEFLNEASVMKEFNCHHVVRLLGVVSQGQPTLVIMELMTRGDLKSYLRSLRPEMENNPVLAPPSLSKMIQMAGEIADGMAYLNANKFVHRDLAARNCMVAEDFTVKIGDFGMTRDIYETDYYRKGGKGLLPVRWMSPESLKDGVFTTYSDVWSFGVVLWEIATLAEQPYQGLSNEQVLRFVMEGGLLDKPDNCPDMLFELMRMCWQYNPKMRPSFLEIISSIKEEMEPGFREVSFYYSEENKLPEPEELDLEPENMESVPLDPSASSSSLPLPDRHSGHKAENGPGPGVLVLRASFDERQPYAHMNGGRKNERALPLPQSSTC
In a few lines:
as §1

In a further assay the target is T4, INSR (Homo sapiens, UniProt P06213).
T4 construct: purchased Thermo Fisher Scientific
T4 sequence (P06213 28-1382): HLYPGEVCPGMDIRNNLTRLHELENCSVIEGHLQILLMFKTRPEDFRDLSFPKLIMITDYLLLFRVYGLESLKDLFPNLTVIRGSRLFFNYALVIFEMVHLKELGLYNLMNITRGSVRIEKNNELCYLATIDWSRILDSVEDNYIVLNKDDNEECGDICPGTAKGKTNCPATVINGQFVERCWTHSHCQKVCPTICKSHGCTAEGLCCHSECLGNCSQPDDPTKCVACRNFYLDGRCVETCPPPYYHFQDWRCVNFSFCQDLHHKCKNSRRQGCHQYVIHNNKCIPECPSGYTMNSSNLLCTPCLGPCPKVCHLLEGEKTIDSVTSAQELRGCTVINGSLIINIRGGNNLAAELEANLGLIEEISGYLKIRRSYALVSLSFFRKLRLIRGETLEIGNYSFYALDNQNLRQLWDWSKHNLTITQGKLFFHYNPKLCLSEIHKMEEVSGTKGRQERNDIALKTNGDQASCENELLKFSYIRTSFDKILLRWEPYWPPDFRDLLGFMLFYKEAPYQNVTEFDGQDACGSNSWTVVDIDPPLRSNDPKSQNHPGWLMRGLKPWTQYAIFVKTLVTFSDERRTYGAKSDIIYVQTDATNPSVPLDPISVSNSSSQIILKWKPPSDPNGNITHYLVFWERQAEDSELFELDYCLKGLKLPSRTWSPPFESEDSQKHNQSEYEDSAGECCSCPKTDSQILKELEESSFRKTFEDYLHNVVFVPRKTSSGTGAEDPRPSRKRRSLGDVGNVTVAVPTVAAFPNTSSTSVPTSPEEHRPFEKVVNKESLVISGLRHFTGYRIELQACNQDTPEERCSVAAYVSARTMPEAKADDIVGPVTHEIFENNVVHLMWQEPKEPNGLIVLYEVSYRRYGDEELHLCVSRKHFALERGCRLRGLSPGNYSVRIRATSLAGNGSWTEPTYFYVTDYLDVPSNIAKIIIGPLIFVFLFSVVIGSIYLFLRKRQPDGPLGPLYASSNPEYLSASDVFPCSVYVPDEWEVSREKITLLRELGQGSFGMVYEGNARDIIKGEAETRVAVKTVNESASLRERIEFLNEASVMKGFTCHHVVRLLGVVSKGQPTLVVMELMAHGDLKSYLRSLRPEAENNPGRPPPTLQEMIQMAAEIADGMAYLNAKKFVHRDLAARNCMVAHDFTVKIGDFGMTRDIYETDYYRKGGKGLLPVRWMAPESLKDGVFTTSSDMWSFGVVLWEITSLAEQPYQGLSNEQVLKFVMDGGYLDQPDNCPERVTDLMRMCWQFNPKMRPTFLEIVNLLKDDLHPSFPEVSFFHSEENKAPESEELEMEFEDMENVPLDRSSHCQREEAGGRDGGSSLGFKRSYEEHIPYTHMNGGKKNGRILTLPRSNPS
In a few lines:
as §1

Another assay deals with T5, MAPKAPK3 (Homo sapiens, UniProt Q16644).
T5 construct: purchased Thermo Fisher Scientific
In a few lines:
as §1

Another assay has as its target T6, PKN1 (PRK1) (Homo sapiens, UniProt Q16512).
T6 construct: purchased Thermo Fisher Scientific
The method in brief: as §1

A further assay deals with T7, EPHA8 (Homo sapiens, UniProt P29322).
T7 construct: purchased Thermo Fisher Scientific
T7 sequence (P29322 28-1005): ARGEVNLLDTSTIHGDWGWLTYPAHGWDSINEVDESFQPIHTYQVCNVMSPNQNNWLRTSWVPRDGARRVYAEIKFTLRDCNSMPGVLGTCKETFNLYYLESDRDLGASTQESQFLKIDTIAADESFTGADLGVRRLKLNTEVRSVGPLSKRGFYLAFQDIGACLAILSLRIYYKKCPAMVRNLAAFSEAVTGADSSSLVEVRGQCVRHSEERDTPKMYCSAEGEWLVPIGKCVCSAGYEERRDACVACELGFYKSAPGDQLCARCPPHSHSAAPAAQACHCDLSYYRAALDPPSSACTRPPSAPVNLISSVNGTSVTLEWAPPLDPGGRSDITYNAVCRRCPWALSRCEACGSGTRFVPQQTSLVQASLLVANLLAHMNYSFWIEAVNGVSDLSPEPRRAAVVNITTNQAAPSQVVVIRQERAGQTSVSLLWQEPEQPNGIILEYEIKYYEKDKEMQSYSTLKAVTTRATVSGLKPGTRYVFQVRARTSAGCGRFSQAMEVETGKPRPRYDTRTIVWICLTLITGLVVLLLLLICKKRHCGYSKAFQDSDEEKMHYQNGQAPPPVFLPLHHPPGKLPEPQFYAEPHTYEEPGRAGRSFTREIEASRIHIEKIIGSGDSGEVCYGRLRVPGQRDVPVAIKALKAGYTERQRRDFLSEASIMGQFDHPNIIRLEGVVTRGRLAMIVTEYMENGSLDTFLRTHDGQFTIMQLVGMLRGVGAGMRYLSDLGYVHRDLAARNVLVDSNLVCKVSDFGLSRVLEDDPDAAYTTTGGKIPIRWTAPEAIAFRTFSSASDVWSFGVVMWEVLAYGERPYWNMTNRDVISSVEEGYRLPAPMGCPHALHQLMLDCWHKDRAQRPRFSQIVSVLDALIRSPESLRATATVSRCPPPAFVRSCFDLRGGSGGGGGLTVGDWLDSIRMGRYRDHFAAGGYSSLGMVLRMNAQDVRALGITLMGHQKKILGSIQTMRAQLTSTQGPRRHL
In a few lines:
as §1

A further assay deals with T8, FGFR3 K650E (Homo sapiens, UniProt P22607, K650E).
T8 construct: purchased Thermo Fisher Scientific
The method in brief:
as §1

Another assay concerns the target T9, RET Y791F (Homo sapiens, UniProt P07949, Y791F).
T9 construct: purchased Thermo Fisher Scientific
The method in brief: as §1

The target of another assay is T10, PDGFRA (PDGFR alpha) (Homo sapiens, UniProt P16234).
T10 construct: purchased Thermo Fisher Scientific
T10 sequence (P16234 24-1089): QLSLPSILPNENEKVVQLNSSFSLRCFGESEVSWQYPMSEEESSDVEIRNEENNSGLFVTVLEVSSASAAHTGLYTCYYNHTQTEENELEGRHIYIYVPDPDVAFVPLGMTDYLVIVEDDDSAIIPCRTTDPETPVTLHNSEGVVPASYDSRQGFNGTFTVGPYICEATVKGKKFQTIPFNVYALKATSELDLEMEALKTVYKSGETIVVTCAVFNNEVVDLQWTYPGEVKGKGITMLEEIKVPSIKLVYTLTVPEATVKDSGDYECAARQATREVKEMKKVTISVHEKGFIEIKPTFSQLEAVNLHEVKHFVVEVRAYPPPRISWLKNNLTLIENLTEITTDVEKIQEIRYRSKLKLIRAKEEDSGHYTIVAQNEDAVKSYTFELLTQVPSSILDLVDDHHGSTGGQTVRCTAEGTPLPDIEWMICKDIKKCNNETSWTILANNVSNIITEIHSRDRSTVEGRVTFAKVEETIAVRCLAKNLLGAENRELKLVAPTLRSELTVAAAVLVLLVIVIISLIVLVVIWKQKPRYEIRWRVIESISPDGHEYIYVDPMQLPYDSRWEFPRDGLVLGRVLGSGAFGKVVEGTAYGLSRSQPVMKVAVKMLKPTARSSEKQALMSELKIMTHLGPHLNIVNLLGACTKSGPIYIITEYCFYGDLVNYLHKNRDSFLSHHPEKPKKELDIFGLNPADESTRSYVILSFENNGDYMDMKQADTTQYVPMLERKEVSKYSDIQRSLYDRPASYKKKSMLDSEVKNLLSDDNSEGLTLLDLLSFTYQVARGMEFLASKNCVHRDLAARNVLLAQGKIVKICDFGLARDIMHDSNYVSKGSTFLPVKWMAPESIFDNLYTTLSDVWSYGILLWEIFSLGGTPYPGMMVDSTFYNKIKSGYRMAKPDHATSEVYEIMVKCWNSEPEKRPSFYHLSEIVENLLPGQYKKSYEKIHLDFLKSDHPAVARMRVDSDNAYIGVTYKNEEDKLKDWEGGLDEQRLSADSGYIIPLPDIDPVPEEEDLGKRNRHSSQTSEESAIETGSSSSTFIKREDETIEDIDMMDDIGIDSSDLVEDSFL
The method in brief:
as §1

T9 sequence (P07949 29-1114 Y791F): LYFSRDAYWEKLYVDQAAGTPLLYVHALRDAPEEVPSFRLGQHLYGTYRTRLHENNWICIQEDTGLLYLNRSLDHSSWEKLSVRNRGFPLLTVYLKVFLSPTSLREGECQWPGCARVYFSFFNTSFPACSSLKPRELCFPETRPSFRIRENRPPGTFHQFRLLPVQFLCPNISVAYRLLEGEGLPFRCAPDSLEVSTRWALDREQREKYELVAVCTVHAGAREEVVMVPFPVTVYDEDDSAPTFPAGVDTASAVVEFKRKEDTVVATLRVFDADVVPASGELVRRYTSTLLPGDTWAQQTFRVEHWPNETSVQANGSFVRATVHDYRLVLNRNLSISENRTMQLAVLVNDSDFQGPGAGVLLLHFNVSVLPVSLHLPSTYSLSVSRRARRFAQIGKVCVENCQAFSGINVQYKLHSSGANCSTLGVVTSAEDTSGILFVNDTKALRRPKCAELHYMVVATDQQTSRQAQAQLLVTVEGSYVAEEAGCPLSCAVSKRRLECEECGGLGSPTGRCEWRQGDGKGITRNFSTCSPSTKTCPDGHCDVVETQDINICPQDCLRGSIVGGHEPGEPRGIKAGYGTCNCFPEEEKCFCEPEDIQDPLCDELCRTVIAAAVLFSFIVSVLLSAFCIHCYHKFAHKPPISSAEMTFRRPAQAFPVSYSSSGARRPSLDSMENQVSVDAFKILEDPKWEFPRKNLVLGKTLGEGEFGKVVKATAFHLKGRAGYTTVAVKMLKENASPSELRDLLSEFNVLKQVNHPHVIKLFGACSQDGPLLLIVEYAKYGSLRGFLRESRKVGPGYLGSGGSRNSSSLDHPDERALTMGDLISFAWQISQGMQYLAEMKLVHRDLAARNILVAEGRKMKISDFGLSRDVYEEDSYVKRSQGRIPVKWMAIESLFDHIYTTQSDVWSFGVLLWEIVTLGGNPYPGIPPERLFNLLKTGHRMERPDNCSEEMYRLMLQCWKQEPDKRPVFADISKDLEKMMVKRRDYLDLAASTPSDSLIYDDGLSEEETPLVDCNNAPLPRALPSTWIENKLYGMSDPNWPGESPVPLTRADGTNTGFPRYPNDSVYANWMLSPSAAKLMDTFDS

In the case of `COc1ccc2c(c1OC)c(=O)n1c3ccc(O)cc3c3ccnc2c31` [MW01, 5-Hydroxy-10,11-dimethoxy-9H-benzo[c]indolo[3,2,1-ij][1,5]naphthyridin-9-one], the inhibition (usually the change of the read-out against control, counted positive when it falls) at 1 µM is 12% on LCK; -2% at DYRK4; 11% on IGF1R; 1% on INSR; 8% on MAPKAPK3; 9% at PKN1 (PRK1). Also, the inhibition at 1 µM at EPHA8 was found to be 4%; at FGFR3 K650E it was 6%; on RET Y791F, 17%; at PDGFRA (PDGFR alpha), 20%. In addition, the inhibition at 10 µM on LCK was 37%; on DYRK4, 0%; on IGF1R, 31%; at INSR it was 11%; at MAPKAPK3, 24%; on PKN1 (PRK1), 16%. Further, the inhibition at 10 µM on EPHA8 worked out at 21%; at FGFR3 K650E it was 16%; at RET Y791F, 32%; at PDGFRA (PDGFR alpha) it was 47%.

Regarding `COc1ccc2cc3c(N)nn(C(=O)c4cccc(N(C)C)c4)c3nc2c1` [MW05, (3-Amino-7-methoxypyrazolo[3,4-b]quinolin-1-yl)-[3-(dimethylamino)phenyl]methanone], the inhibition at 1 µM on LCK was 8%; on DYRK4 it was 4%; at IGF1R it was -1%; at INSR, 8%; on MAPKAPK3 it was 10%; on PKN1 (PRK1), 15%. Further, the inhibition at 1 µM at EPHA8 was -1%; on FGFR3 K650E, 8%; on RET Y791F it was 5%; on PDGFRA (PDGFR alpha), 7%. Moreover, the inhibition at 10 µM at LCK was 5%; on DYRK4 it was 4%; on IGF1R, -12%; on INSR, -7%; on MAPKAPK3 it was 3%; at PKN1 (PRK1) it was 4%. Further, the inhibition at 10 µM is -9% at EPHA8, -3% on FGFR3 K650E, 7% at RET Y791F and 6% on PDGFRA (PDGFR alpha).
